The source made the active and inactive calls.
Assays:
[1] = biological target: Alkaline phosphatase, placental type (Homo sapiens, UniProt P05187); test: PLAP enzyme inhibitors, confirmation, biochemical, luminescence (AID 1512); type: functional
[2] = biological target: Glyceraldehyde-3-phosphate dehydrogenase (Homo sapiens, UniProt P04406)
[3] = biological target: Signal transducer and activator of transcription 3 (Homo sapiens, UniProt P40763); test: STAT3 inhibitors, late-stage profile, late-stage follow-up, cell-based, STAT1 panel, qPCR, cytotoxicity, panel member STAT3 Inhibition (AID 2078)
Chain of Signal transducer and activator of transcription 3 (P40763 whole entry): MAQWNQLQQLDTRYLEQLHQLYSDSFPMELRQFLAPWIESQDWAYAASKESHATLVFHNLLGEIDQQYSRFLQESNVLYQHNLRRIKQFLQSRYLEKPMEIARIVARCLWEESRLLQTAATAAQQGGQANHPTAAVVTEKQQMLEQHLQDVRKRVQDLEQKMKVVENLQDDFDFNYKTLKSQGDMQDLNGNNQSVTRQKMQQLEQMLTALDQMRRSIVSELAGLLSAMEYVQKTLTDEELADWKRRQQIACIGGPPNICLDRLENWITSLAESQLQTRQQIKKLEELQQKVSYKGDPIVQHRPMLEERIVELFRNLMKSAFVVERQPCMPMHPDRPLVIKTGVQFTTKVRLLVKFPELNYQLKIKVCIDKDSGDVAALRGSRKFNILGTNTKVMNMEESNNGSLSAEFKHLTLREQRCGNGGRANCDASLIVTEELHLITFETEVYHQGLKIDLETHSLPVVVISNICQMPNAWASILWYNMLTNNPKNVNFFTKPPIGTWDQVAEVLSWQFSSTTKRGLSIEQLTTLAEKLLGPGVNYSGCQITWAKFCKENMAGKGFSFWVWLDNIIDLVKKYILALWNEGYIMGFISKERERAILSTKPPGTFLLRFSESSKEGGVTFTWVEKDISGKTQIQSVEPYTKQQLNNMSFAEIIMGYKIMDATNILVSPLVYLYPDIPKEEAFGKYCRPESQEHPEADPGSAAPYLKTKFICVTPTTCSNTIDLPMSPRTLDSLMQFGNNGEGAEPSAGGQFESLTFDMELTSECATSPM

[4] = biological target: Signal transducer and activator of transcription 1-alpha/beta (Homo sapiens, UniProt P42224); test: STAT3 inhibitors, late-stage profile, late-stage follow-up, cell-based, STAT1 panel, qPCR, cytotoxicity, panel member STAT1 Inhibition (AID 2078)
Chain of Signal transducer and activator of transcription 1-alpha/beta (P42224 whole entry): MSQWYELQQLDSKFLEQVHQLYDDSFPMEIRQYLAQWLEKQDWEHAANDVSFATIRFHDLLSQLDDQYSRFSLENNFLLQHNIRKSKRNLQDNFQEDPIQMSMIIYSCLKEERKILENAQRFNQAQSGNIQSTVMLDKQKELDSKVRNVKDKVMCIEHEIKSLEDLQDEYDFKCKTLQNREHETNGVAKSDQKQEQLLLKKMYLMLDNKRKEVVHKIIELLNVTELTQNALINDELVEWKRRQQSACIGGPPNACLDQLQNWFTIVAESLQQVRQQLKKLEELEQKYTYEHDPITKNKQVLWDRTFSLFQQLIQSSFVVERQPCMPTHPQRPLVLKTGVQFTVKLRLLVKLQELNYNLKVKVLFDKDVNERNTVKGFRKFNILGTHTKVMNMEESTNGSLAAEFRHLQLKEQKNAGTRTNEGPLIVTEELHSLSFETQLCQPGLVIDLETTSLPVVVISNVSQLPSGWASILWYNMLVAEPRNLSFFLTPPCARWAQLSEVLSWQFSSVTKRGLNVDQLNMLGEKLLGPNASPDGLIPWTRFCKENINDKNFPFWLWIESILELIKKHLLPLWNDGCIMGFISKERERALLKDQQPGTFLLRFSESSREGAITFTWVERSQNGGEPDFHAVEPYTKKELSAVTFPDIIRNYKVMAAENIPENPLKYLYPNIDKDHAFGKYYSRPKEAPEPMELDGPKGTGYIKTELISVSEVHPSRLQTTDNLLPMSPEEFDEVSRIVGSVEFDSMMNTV

Cannabinoid receptor 2 [5] = biological target: T1, Cannabinoid receptor 2 (Homo sapiens, UniProt P34972); test: SAR analysis of agonists of the Cannabinoid Receptor 2 using an Image-Based Assay - Set 3. [Related pubchem assays (depositor defined):AID2013, AID2026]; type: functional
T1 sequence (P34972 whole entry): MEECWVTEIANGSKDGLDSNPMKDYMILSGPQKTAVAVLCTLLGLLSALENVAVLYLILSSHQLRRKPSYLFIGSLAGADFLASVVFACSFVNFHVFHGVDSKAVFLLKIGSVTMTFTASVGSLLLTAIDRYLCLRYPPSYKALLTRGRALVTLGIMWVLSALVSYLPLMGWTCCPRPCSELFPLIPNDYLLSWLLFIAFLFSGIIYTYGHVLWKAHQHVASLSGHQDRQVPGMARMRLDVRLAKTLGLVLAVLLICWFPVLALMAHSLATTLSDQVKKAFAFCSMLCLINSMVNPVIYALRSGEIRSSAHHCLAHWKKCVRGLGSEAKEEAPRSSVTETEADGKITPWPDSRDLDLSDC

[6] = biological target: T2, G-protein coupled receptor 35 (Homo sapiens, UniProt Q9HC97); test: SAR analysis of Agonists of the GPR35 Receptor using an Image-Based Assay - Set 4. [Related pubchem assays (depositor defined):AID2013, AID2026]; type: functional
T2 sequence (Q9HC97 whole entry): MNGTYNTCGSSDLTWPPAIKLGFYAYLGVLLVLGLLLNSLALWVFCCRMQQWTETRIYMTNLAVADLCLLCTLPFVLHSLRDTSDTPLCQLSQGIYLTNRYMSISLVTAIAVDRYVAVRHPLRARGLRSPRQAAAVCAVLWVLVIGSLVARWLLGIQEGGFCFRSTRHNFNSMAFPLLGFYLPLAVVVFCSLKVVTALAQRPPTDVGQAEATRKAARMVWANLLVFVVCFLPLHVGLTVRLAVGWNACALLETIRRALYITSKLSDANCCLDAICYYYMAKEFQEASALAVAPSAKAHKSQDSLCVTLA

[7] = biological target: T2, G-protein coupled receptor 35; test: SAR analysis of Antagonists of the GPR35 Receptor using an Image-Based Assay - Set 6. [Related pubchem assays (depositor defined):AID2013, AID2026]; type: functional
Cannabinoid receptor 1 [8] = biological target: T3, Cannabinoid receptor 1 (Homo sapiens, UniProt P21554); test: SAR analysis of antagonists of the Cannabinoid Receptor 1 using an Image-Based Assay - Set 4. [Related pubchem assays (depositor defined):AID2013, AID2026]; type: functional
T3 sequence (P21554 whole entry): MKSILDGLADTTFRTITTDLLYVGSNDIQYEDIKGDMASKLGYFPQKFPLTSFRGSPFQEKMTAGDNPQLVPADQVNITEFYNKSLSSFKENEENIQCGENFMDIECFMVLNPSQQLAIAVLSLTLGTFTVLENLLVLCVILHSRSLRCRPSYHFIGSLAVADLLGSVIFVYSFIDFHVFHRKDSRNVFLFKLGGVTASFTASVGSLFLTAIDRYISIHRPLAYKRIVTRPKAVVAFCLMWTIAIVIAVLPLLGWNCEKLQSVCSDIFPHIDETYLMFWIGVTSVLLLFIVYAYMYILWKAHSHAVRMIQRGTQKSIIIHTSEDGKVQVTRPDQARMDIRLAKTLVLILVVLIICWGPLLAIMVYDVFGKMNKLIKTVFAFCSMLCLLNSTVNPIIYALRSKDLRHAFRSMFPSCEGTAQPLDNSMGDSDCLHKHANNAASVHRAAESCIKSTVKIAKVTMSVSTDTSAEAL

[9] = biological target: G-protein coupled receptor 55 (Homo sapiens, UniProt Q9Y2T6); test: SAR Analysis of Selective Antagonists of GPR55 using an Image-Based Assay - Set 4. [Related pubchem assays (depositor defined):AID2013, AID2026]; type: functional;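 further: antagonism of response to 5 µM lysophosphatidylinositol agonist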
Chain of G-protein coupled receptor 55 (Q9Y2T6 whole entry): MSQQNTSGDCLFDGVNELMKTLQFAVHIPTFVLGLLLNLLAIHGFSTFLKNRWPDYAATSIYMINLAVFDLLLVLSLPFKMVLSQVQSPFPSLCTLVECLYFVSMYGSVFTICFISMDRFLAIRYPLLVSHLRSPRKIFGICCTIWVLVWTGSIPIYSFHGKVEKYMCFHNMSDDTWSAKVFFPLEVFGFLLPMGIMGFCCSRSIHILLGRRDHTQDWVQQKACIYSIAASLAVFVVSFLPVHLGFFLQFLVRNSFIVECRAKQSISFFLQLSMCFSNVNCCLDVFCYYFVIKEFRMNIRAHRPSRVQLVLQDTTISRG

Cannabinoid receptor 2 [10] = biological target: T1, Cannabinoid receptor 2; test: SAR analysis of antagonists of the Cannabinoid Receptor 2 using an Image-Based Assay - Set 3. [Related pubchem assays (depositor defined):AID2013, AID2026]; type: functional
Cannabinoid receptor 1 [11] = biological target: T3, Cannabinoid receptor 1; test: SAR analysis of agonists of the Cannabinoid Receptor 1 using an Image-Based Assay - Set 4. [Related pubchem assays (depositor defined):AID2013, AID2026]; type: functional
[12] = biological target: T4, Sphingosine 1-phosphate receptor 4 (Homo sapiens, UniProt O95977); test: Fluorescence dose response cell-based high throughput screening assay for agonists of the Sphingosine 1-Phosphate Receptor 4 (S1P4). [Related pubchem assays: 1509 (Primary screen.), 1523 (Confirmation screen in triplicates.)]; type: functional
T4 sequence (O95977 whole entry): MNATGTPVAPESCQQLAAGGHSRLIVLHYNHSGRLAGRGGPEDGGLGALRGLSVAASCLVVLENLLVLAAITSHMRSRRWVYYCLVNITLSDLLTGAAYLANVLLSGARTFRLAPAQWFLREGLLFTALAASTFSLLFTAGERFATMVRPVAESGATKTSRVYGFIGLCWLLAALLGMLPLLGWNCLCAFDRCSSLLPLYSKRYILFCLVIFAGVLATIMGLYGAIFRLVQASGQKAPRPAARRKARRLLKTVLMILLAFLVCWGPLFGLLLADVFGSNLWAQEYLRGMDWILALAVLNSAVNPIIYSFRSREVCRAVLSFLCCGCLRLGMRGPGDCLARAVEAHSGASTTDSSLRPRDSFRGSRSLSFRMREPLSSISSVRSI

[13] = biological target: Sphingosine 1-phosphate receptor 1 (Homo sapiens, UniProt P21453); test: Fluorescence-based counterscreen assay for S1P4 agonists: Cell-based dose response high throughput screening assay to identify agonists of the Sphingosine 1-Phosphate Receptor 1 (S1P1). [Related pubchem assays (depositor defined):AID1509, AID1523, AID1801, AID463107, AID463118, AID463119, AID463122, AID463123, AID463129, AID463225, AID504400, AID504460]; type: functional
Ion channel NompC = Ion channel NompC (Danio rerio, UniProt Q7T1G6); test: Dose response cell-based high-throughput screening assay for agonists of the transient receptor potential channel N1 (TRPN1). [Related pubchem assays (depositor defined):AID1424, AID1448]; type: functional
Mucolipin-3 = biological target: T5, Mucolipin-3 (Homo sapiens, UniProt Q8TDD5); test: Fluorescence counterscreen assay for […] agonists: dose response cell-based high-throughput screening assay to identify agonists of the transient receptor potential channel ML3 (TRPML3). [Related pubchem assays: 1424, 1448 ]; type: functional
T5 sequence (Q8TDD5 whole entry): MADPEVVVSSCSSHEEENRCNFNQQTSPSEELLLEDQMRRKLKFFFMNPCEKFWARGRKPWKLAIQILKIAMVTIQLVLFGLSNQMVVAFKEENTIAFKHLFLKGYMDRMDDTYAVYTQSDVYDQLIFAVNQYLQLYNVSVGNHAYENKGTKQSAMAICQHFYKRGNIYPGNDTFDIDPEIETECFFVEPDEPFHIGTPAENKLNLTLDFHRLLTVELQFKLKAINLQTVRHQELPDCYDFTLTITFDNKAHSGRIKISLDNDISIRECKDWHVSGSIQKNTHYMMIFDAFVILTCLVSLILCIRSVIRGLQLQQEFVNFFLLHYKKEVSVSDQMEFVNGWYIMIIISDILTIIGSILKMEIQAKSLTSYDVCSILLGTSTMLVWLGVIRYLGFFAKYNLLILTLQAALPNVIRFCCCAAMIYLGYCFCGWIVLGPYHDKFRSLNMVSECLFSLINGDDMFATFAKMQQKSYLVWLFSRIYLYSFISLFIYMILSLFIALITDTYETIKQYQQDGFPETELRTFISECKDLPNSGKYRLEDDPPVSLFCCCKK

[14] = HEp-2 cell cytotoxicity, dose response, cytotoxicity control for RSV inhibitor project, HTS (AID 2410); type: functional; details: human respiratory syncytial virus
[15] = growth suppression of beta-catenin-knockout colon cells, dose response, cell-based, HCT116, human colon tumor (AID 1045); type: functional;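 further: HCT116 colon tumor cells with beta catenin knocked out; cells exposed to compound for 60 hours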
[16] = biological target: T6, Replicative DNA helicase DnaB (Mycobacterium tuberculosis, UniProt P9WMR3); test: DnaB intein splicing inhibitors, dose response, biochemical, cell-free fluorescence (AID 449749); type: functional
T6 sequence (P9WMR3 whole entry): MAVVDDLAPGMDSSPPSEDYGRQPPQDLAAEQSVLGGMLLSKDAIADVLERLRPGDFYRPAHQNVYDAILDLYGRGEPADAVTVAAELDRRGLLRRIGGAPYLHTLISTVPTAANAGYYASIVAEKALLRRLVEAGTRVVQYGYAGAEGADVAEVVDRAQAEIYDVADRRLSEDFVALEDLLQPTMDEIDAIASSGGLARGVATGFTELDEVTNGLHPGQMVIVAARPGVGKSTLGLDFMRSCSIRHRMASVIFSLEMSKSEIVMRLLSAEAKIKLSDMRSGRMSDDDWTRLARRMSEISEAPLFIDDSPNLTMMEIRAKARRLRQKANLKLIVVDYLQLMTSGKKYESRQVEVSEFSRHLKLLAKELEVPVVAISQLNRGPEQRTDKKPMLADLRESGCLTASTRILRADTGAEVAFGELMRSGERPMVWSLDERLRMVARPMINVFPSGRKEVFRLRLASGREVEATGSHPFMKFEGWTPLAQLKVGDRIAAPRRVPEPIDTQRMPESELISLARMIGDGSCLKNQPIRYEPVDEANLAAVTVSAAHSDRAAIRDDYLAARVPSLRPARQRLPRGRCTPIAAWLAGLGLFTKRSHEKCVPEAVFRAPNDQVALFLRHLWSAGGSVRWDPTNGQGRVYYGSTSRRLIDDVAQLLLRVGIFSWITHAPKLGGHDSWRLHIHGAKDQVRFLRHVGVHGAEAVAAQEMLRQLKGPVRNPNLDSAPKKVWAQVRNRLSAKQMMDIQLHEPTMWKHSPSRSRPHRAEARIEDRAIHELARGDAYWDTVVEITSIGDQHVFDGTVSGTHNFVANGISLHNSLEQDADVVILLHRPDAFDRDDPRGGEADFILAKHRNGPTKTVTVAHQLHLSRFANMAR

[17] = growth suppression of PTEN-null colon cells, dose response, cell-based, HCT116 PTEN knockout (AID 1047); type: functional;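 further: HCT116 colon tumor cells with PTEN knocked out; cells exposed to compound for 60 hours before readout; potency for loss of cell viability measured by luminescence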
[18] = cytotoxicity toward DRD oncogenic fibroblasts, dose response, cell-based, non-viral oncogenic, luminescence (AID 1934); type: functional; details: Homo sapiens
BJ [19] = test: cytotoxicity toward BJ-TERT fibroblasts, dose response, cell-based, RAS-independent, luminescence (AID 1933); type: functional; details: Homo sapiens
BJ [20] = test: cells; type: functional, cell-based; details: Homo sapiens
Protein RecA = biological target: T7, Protein RecA (Mycobacterium tuberculosis, UniProt P9WHJ3); test: Fluorescence Cell-Free Homogeneous Dose Retest to Identify Inhibitors of RecA-Intein Splicing Activity. [Related pubchem assays (depositor defined):AID2097, AID2223, AID489010, AID492950]; type: functional
T7 sequence (P9WHJ3 whole entry): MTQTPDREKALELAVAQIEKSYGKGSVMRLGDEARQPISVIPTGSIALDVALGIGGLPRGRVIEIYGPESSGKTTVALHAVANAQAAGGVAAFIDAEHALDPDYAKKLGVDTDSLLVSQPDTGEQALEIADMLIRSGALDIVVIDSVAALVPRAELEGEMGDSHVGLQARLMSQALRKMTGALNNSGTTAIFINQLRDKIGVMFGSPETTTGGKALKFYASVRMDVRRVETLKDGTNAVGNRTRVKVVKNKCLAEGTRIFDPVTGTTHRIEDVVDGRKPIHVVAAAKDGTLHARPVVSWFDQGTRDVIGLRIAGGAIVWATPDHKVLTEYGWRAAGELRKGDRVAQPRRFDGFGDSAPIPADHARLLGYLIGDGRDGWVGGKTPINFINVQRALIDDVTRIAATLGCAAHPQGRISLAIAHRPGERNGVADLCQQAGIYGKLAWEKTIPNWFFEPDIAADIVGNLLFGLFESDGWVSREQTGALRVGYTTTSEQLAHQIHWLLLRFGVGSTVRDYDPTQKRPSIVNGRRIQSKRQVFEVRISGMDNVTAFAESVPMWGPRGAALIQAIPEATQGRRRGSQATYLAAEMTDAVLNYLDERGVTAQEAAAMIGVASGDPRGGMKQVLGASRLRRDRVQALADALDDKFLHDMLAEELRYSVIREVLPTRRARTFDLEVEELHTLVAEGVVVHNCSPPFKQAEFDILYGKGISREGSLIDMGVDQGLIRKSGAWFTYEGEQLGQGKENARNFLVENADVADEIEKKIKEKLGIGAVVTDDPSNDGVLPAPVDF

BJ [21] = test: cytotoxicity toward BJ-TERT-LT-ST fibroblasts, dose response, cell-based, RAS-independent, luminescence (AID 1935); type: functional; details: Homo sapiens;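 further: BJ fibroblasts immortalized with TERT plus LT and ST oncogenes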
CAAX prenyl protease 2 = CAAX prenyl protease 2 (Saccharomyces cerevisiae S288c, UniProt Q03530); type: biochemical
Chain of CAAX prenyl protease 2 (Q03530 whole entry): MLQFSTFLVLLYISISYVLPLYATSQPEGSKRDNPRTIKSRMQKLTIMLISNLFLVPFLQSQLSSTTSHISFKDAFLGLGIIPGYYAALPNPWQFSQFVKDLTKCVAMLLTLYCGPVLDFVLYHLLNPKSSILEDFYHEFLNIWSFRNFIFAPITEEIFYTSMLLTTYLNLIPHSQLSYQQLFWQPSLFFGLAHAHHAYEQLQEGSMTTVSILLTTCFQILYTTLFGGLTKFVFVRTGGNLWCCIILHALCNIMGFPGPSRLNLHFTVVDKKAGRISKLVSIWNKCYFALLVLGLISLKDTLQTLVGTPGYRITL

[22] = biological target: T4, Sphingosine 1-phosphate receptor 4; test: Late-stage fluorescence dose response cell-based assay to identify agonists of the Sphingosine 1-Phosphate Receptor 4 (S1P4): purchased compounds EC50. [Related pubchem assays (depositor defined):AID1509, AID1523, AID1563, AID1686, AID1701, AID1801]; type: functional
Hexokinase = Hexokinase (Trypanosoma brucei, UniProt Q38C41); test: Confirmation assay for inhibitors of Trypanosoma brucei hexokinase 1-Analogue-first series. [Related pubchem assays (depositor defined):AID1430, AID1632, AID2516, AID2560, AID2579, AID2600, AID449725, AID492951]; type: functional
Chain of Hexokinase (Q38C41 whole entry, the tested form may be a part): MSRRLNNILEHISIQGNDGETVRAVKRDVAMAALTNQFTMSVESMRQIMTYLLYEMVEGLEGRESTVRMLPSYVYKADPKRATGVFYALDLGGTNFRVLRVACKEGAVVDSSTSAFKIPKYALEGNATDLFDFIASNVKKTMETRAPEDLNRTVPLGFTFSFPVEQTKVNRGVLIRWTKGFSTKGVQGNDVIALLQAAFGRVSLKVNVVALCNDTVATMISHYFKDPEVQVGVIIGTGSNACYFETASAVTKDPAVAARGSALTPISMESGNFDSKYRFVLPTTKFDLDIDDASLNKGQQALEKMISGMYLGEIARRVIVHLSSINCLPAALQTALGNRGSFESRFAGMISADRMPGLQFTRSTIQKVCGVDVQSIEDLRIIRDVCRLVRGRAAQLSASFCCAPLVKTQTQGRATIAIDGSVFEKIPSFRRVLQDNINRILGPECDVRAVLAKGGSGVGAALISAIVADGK

[23] = biological target: T8, Runt-related transcription factor 1/Core-binding factor subunit beta (Homo sapiens, UniProt Q01196+Q13951); test: inhibitors of RUNX1 Runt–CBFb-SMMHC binding, primary screen, biochemical, FRET, Cerulean-Runt, Venus-CBFb-SMMHC, uHTS (AID 1434); type: protein assay;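 further: partner is the CBFb-SMMHC leukemia fusion protein rather than wild-type CBFb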
T8 sequence (Q01196 whole entry, the tested form may be a part): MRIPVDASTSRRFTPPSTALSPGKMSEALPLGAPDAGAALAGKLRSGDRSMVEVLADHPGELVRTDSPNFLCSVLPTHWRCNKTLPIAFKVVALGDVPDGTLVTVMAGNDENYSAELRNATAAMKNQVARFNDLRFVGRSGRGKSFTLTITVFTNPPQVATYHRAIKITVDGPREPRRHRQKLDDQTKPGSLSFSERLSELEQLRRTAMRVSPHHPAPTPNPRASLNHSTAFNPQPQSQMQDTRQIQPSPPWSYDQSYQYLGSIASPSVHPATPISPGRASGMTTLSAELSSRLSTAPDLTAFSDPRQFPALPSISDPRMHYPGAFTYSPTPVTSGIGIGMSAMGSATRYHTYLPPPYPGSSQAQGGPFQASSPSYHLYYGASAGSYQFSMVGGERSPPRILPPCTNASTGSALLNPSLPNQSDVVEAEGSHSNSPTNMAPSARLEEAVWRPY
T8 sequence (Q13951 whole entry, the tested form may be a part): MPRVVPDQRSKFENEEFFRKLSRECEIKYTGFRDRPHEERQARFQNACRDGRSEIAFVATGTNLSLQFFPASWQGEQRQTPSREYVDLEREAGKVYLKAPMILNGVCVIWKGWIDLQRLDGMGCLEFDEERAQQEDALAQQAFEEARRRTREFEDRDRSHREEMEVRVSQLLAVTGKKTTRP

[24] = biological target: T8, Runt-related transcription factor 1/Core-binding factor subunit beta; test: inhibitors of RUNX1 Runt–CBFb-SMMHC binding, biochemical, TR-FRET (AID 1438); type: protein assay

Chain of Alkaline phosphatase, placental type (P05187 whole entry): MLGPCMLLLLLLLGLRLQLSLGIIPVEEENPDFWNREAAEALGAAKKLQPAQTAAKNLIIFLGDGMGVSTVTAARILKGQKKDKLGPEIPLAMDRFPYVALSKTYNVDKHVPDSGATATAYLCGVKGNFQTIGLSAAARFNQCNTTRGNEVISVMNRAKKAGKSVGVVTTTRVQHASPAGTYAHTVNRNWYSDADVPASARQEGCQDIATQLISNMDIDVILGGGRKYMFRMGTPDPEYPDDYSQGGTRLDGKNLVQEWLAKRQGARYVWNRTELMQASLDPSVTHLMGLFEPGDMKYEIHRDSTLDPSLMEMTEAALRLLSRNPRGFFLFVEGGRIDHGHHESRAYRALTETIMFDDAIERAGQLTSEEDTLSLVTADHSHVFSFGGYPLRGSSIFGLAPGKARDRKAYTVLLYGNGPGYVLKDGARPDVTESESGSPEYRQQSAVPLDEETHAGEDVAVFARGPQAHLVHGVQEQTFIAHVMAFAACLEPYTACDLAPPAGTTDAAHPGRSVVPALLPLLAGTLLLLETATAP

SMILES: CN(C)C(=O)c1cc(-c2cc(F)c(Cl)cc2Cl)n[nH]1
- IC50 [1]: > 100 µM (inactive)
- IC50 [2]: > 100 µM (not active)

SMILES: Cc1sc2ncnc(N3CCC(C(=O)c4ccccc4)CC3)c2c1C
- IC50 [3]: 5.21 µM (active)
- IC50 [4]: > 55.7 µM (inactive)

SMILES: Cc1[nH]nc(-c2ccc(O)cc2O)c1-c1ccc(Br)cc1
- EC50 (Cannabinoid receptor 2 [5]): > 32 µM (inactive)
- EC50 [6]: > 32 µM (inactive)
- IC50 [7]: > 32 µM (inactive)
- IC50 (Cannabinoid receptor 1 [8]): 0.981 µM (active)
- IC50 [9]: 5.4 µM (active)
- IC50 (Cannabinoid receptor 2 [10]): 9.2 µM (active)
- EC50 (Cannabinoid receptor 1 [11]): > 32 µM (inactive)

SMILES: CCOC(=O)c1c(-n2c(C)cc(/C=C3\C(=O)NC(=O)N(C)C3=O)c2C)sc2c1CCCC2
- EC50 [12]: > 49.8 µM (not active)
- EC50 [13]: > 49.8 µM (inactive)

SMILES: CCOC(=O)C1C(c2ccc3c(c2)OCO3)NC(=O)NC1(O)C(F)(F)F (centres undefined)
- EC50 (Ion channel NompC): > 29.9 µM (inactive)
- EC50 (Mucolipin-3): > 29.9 µM (not active)

SMILES: COC(=O)CSc1nc(N)c2c3c(sc2n1)C(c1ccccc1)SC(c1ccccc1)C3 (centres undefined)
- CC50 [14]: > 50 µM (active)
- EC50 [15]: 14.4 µM (active)
- AC50 [16]: > 380 µM (inactive)
- EC50 [17]: 14.2 µM (active)
- EC50 [18]: 11.4 µM (active)
- EC50 (BJ [19]): 8.88 µM (inconclusive)
- EC50 (BJ [20]): > 150 µM (inconclusive)
- EC50 (Protein RecA): > 380 µM (inactive)
- EC50 (BJ [21]): 17.1 µM (inconclusive)
- AC50 (CAAX prenyl protease 2): 13.8 µM (active)

SMILES: Cc1ccc(OCC(=O)Nc2ccc(Cl)cc2F)c([N+](=O)[O-])n1
- EC50 [22]: > 50 µM (inactive)

SMILES: O=c1c2cccnc2sn1-c1ccccc1
- IC50 (Hexokinase): 2.27 µM (active)

SMILES: O=C1Nc2ccccc2C12Nc1ccccc1S2 (centres undefined)
- IC50 [23]: 8.95 µM (active)
- IC50 [24]: 28.2 µM (active)

Source: ChEMBL document CHEMBL1201862, “PubChem BioAssay data set” (2004)
